Results on 3 compounds are retold here after patent US4396628A (priority 1982, dated 1983).

“Also recorded” adds a separate entry of the source. Like-named read-outs stand apart in the source and are kept apart here.

The test system of series [1] is vesicular stomatitis virus (VSV). As to the kind of experiment: microbe, parasite or virus in culture. Format: cell-based, vesicular stomatitis virus; Swiss 3T3 mouse cells. As to conditions: for VSV-dependent RNA synthesis when VSV neutralizing antibody omitted (reversibility): Swiss 3T3, inhibitor-treated cultures; for IC50: Vesicular stomatitis virus, Swiss-3T3, in Mus musculus, 10 min, read-out: half-maximal inhibitory concentration, VSV dependent RNA synthesis; for effect on VSV entry / VSV dependent RNA synthesis: in words.

In series [2] the test system is α2 macroglobulin (α2 M) uptake, Swiss 3T3 cells. As to the kind of experiment: uptake (internalization) of 125I-α2 macroglobulin by Swiss 3T3 cells. Format: cell-based, mouse. As to conditions: for IC50: Mus musculus, 0.75 h, Swiss 3T3, 0.5 μg/ml 125I-α2 M, 45 min at 37° C., read-out: half-maximal inhibitory concentration, α2 M uptake; for effect on α2 macroglobulin uptake: in words.

The test system of series [3] is α2 M in coated pits, Swiss 3T3 cells. As to the kind of experiment: electron microscopy (peroxidase staining) of α2 M appearance in coated pits of Swiss 3T3 cells. The series is classed as cell-based, mouse. As to conditions: 250 μg/ml α2 M; for α2 M appearance in coated pits: 45 min at 4° C., varying inhibitor concentrations. As to the method: Swiss 3T3 cells were incubated with 250 μg/ml α2 M at 4° C., with and without inhibitor. Em localization of α2 M was performed using a peroxidase staining technique.
Varying concentrations of amantadine and rimantadine were present during the incubation period. The cells were then washed, fixed for EM and the α2 M located by the peroxidase method. […] In the absence of inhibitors, α2 M was easily detected in coated pits by the peroxidase techniques (FIG. 5B).

For series [4], the target named is T1, guinea pig liver transglutaminase (Cavia cutleri, UniProt P08587).
T1 construct: guinea pig liver transglutaminase activity; from tissue; host or cells: guinea pig liver
T1 sequence (P08587 2-690): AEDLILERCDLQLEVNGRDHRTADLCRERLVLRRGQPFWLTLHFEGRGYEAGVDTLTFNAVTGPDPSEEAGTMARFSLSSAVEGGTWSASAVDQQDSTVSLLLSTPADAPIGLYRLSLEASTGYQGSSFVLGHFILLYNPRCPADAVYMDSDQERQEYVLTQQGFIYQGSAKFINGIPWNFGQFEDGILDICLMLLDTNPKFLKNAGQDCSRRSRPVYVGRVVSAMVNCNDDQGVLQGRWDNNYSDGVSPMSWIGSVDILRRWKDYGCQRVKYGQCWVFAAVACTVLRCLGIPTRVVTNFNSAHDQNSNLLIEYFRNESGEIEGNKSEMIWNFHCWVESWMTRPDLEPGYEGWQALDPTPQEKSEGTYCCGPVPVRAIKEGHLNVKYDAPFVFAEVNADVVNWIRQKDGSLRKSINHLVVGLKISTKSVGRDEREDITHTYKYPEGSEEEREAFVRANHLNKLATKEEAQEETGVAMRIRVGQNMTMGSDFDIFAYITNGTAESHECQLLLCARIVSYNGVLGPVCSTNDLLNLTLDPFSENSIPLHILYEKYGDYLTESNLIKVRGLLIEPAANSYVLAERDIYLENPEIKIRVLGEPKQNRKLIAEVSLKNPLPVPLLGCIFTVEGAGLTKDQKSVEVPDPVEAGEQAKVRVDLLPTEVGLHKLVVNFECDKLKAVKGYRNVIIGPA
As to the kind of experiment: guinea pig liver transglutaminase activity, incorporation of 3H-putrescine into casein. The series is classed as biochemical. The note with it: for IC50: 3H-putrescine into casein, read-out: Half-maximal Inhibitory Concentration, transglutaminase; for potency ranking in the transglutaminase assay: in words. As to the method: Effect of Dansylcadaverine, Amantadine, and Rimantadine
on the Activity of Guinea Pig Liver Transglutaminase
Enzyme activity was measured by the incorporation of ^3 H-putrescine into casein. All three inhibitors of viral and α2 M internalization were also inhibitory in the transglutaminase assay.

Series [5] deals with Swiss 3T3 cells. The series can be described thus: cytotoxicity and cellular RNA synthesis in drug-treated Swiss 3T3 cultures. The note with it: Swiss 3T3, experimental protocol of FIG. 2.
Series [6] relates to vesicular stomatitis virus (VSV). Format: cell-based, vesicular stomatitis virus; Swiss 3T3 mouse cells. The note with it: for effect on uptake of VSV and α2 M via coated pits: Swiss 3T3, EM.
The test system of series [7] is Swiss 3T3 cells.
Series [8] concerns vesicular stomatitis virus (VSV). Format: cell-based, vesicular stomatitis virus; Swiss 3T3 mouse cells. The note with it: 200 μM; 10 min at 37° C.; MOI 500.

Regarding `NC12CC3CC(CC(C3)C1)C2` [amantadine, 1-adamantanamine], in series [1], the “VSV-dependent RNA synthesis when VSV neutralizing antibody omitted (reversibility)” value was “control levels of VSV-dependent RNA synthesis”, the IC50 came out at 1000 µM and the “effect on VSV entry / VSV dependent RNA synthesis” value is on record as “reduction of VSV-dependent RNA synthesis; also recorded: inhibit VSV entry; also recorded: reduced VSV dependent RNA synthesis”. Moreover, in series [2], the IC50 was 2500 µM and the “effect on α2 macroglobulin uptake” value is listed as “inhibit the uptake of α2 macroglobulin”. Besides, the “α2 M appearance in coated pits” value in series [3] was “inhibition of α2 M appearance in coated pits”. Further, the “α2 M localization by EM” value in series [3] (5 mM amantadine, 4° C. (FIG. 5C)) is recorded as “α2 M bound diffusely to the plasma membrane”. In series [4], the IC50 was 20000 µM and the “potency ranking in the transglutaminase assay” value (“potency ranking” for short) is on record as “third”. Further, the cytotoxicity result in the series on Swiss 3T3 cells [5] is “no evidence of cytotoxicity”. Moreover, the “effect on uptake of VSV and α2 M via coated pits” value (“effect on uptake” below) in series [6] is reported as “drastically perturbed this uptake mechanism”. Besides, the “cellular RNA synthesis, drug-treated versus control cultures” value with Swiss 3T3 cells [7] is “equivalent in control and drug-treated cultures”.
As to `CN(C)c1cccc2c(S(=O)(=O)NCCCCCN)cccc12` [dansylcadaverine], the “intracellular VSV G protein / VSV uptake by immunofluorescence” value in series [8] is “little or no G protein”. In addition, in series [1], the “VSV-dependent RNA synthesis when VSV neutralizing antibody omitted (reversibility)” value is “control levels of VSV-dependent RNA synthesis”; the IC50 stood at 50 µM; the “effect on VSV entry / VSV dependent RNA synthesis” value was “blocking virus (such as vesicular stomatitis virus, VSV), and α2 macroglobulin uptake; also recorded: reduction of VSV-dependent RNA synthesis; also recorded: inhibit VSV entry; also recorded: reduced VSV dependent RNA synthesis”. The “potency relative to amantadine, VSV uptake (antiviral)” value in series [1] (dansylcadaverine versus amantadine) was 20 fold. Further, in series [2], the IC50 worked out at 150 µM and the “effect on α2 macroglobulin uptake” value is “inhibit the uptake of α2 macroglobulin”. Also, in series [4], the IC50 amounted to 200 µM and the “potency ranking” value was “most potent”. The cytotoxicity result in the series on Swiss 3T3 cells [5] is “no evidence of cytotoxicity”. For the same compound, the “coated pit appearance in VSV-infected cells by EM” value (“coated pit appearance” below) in series [6] (100 μM dansylcadaverine (FIG. 4D)) is “vacant coated pit”. In series [6] (500 μM dansylcadaverine (FIG. 4E)), the “coated pit appearance” value is recorded as “vacant coated pit”. Moreover, the “effect on uptake” value in series [6] is recorded as “drastically perturbed this uptake mechanism”. The “cellular RNA synthesis, drug-treated versus control cultures” value in the series on Swiss 3T3 cells [7] is “equivalent in control and drug-treated cultures”.
Take `CC(N)C12CC3CC(CC(C3)C1)C2` (stereo not drawn) [rimantadine]: the IC50 in series [2] is 500 µM; in series [4], 5000 µM. Also, in series [3], the “α2 M appearance in coated pits” value is on record as “inhibition of α2 M appearance in coated pits”. The “α2 M localization by EM” value in series [3] (1 mM rimantadine, 4° C. (FIG. 5D)) was “α2 M bound to plasma membrane”. For the same compound, in series [4], the “potency ranking” value was “second most potent”. In addition, the “coated pit appearance” value in series [6] (1 mM rimantadine (FIG. 4F)) is listed as “vacant coated pit”. Further, the “effect on uptake” value in series [6] is on record as “drastically perturbed this uptake mechanism”.
